Measured values: the NIST ThermoML archive (doi:10.1021/acs.jced.6b00362)

Columns and labels:
[1] = Crystal; DTA
[2] = refractive index (other wavelength) (dimensionless); details: 101 kPa, Liquid, Wavelength=632.8 nm, ellipsometry
[3] = refractive index (other wavelength) (dimensionless); xn = mol fraction of the nth substance listed; details: Liquid, ellipsometry
[4] = refractive index (Na D-line) (dimensionless); details: 101.33 kPa, Liquid, ellipsometry

[Cl][Ce]([Cl])[Cl] [cerium trichloride]
Details	Normal melting temperature [°C]
[1]	822

[2]
Details	refractive index
1103 K	1.697
1133 K	1.691
1153 K	1.688
1173 K	1.685
1193 K	1.681
1213 K	1.678
1233 K	1.674

[Cl][Ce]([Cl])[Cl] [cerium trichloride] + [Cl-].[Cs+]
refractive index, [3], 100 kPa, Wavelength=632.8 nm
Details	x1 = 0.25	x1 = 0.5	x1 = 0.75	x1 = 1
1073 K	1.495	1.553	1.627	–
1103 K	1.49	1.549	1.623	1.697
1123 K	1.487	1.545	1.619	–
1133 K	–	–	–	1.691
1153 K	1.482	1.54	1.614	1.688
1173 K	1.479	1.537	1.61	1.685
1193 K	–	–	–	1.681
1203 K	–	1.532	–	–
1213 K	–	1.53	–	1.678
1223 K	–	–	1.601	–
1233 K	–	–	–	1.674

[Cl][Ce]([Cl])[Cl] [cerium trichloride] + [Cl-].[K+]
refractive index, [3], 100 kPa, Wavelength=632.8 nm
Details	1073 K	1103 K	1123 K	1133 K	1153 K	1173 K	1193 K	1203 K	1213 K	1233 K
x1 = 0.25	1.478	1.475	1.471	–	1.466	1.463	1.46	–	–	–
x1 = 0.5	1.56	1.554	1.552	–	1.548	1.544	–	1.54	–	–
x1 = 0.75	1.591	1.586	1.583	–	1.582	1.575	–	–	–	–
x1 = 1	–	1.697	–	1.691	1.688	1.685	1.681	–	1.678	1.674

[Cl][Ce]([Cl])[Cl] [cerium trichloride] + [Cl-].[Na+]
refractive index, [3], 101 kPa, Wavelength=632.8 nm
Details	1073 K	1103 K	1123 K	1133 K	1153 K	1173 K	1193 K	1213 K	1223 K	1233 K
x1 = 0.25	1.515	1.51	1.507	–	1.502	1.5	–	–	–	–
x1 = 0.5	1.595	1.59	1.587	–	1.582	1.58	1.578	–	–	–
x1 = 0.75	1.656	1.651	1.647	–	1.642	1.639	1.636	–	1.631	–
x1 = 1	–	1.697	–	1.691	1.688	1.685	1.681	1.678	–	1.674

[Cl-].[Cs+] [cesium chloride]
[2]
Details	refractive index
1023 K	1.439
1033 K	1.438
1053 K	1.434
1073 K	1.43
1093 K	1.426
1113 K	1.423
1133 K	1.419
1153 K	1.415
1173 K	1.411

[Cl-].[Cs+] [cesium chloride] + [Cl-].[Cl-].[Cl-].[Gd+3]
[3], 100 kPa, Wavelength=632.8 nm, x2 = 0
Details	refractive index
1023 K	1.439
1033 K	1.438
1053 K	1.434
1073 K	1.43
1093 K	1.426
1113 K	1.423
1133 K	1.419
1153 K	1.415
1173 K	1.411

[Cl-].[Cs+] [cesium chloride] + [Cl][Ce]([Cl])[Cl]
[3], 100 kPa, Wavelength=632.8 nm, x2 = 0
Details	refractive index
1023 K	1.439
1033 K	1.438
1053 K	1.434
1073 K	1.43
1093 K	1.426
1113 K	1.423
1133 K	1.419
1153 K	1.415
1173 K	1.411

[Cl-].[Cs+] [cesium chloride] + [Cl][Sm]([Cl])[Cl]
[3], 100 kPa, Wavelength=6328 nm, x2 = 0
Details	refractive index
1023 K	1.439
1033 K	1.438
1053 K	1.434
1073 K	1.43
1093 K	1.426
1113 K	1.423
1133 K	1.419
1153 K	1.415
1173 K	1.411

[Cl-].[Cl-].[Cl-].[Gd+3] [gadolinium(III) chloride]
Details	Normal melting temperature [°C]
[1]	602

refractive index
Details	923 K	973 K	1023 K	1073 K	1123 K	1173 K
[2]	1.7	1.685	1.68	1.675	1.664	1.662
[4]	1.7	1.685	1.68	1.675	1.664	1.662

[Cl-].[Cl-].[Cl-].[Gd+3] [gadolinium(III) chloride] + [Cl-].[Cs+]
refractive index, [3], 100 kPa, Wavelength=632.8 nm
Details	923 K	973 K	1023 K	1073 K	1103 K	1123 K	1173 K
x1 = 0.15	–	–	–	1.46	1.453	1.448	1.437
x1 = 0.5	1.568	1.56	1.552	1.543	1.538	1.535	1.526
x1 = 0.75	1.629	1.621	1.613	1.606	1.603	1.601	1.594
x1 = 1	1.7	1.685	1.68	1.675	–	1.664	1.662

[Cl-].[Cl-].[Cl-].[Gd+3] [gadolinium(III) chloride] + [Cl-].[K+]
refractive index, [3], 100 kPa, Wavelength=632.8 nm
Details	923 K	973 K	1023 K	1073 K	1123 K	1173 K
x1 = 0.25	–	–	1.48	1.473	1.465	1.457
x1 = 0.5	1.557	1.551	1.546	1.54	1.534	1.529
x1 = 0.75	1.665	1.65	1.635	1.62	1.606	1.591
x1 = 1	1.7	1.685	1.68	1.675	1.664	1.662

[Cl-].[Cl-].[Cl-].[Gd+3] [gadolinium(III) chloride] + [Cl-].[Na+]
refractive index, [3], 100 kPa, Wavelength=632.8 nm
Details	923 K	973 K	1023 K	1073 K	1123 K	1173 K
x1 = 0.25	1.525	1.518	1.512	1.505	1.496	1.488
x1 = 0.5	1.586	1.58	1.57	1.562	1.55	1.544
x1 = 0.75	1.643	1.64	1.638	1.627	1.62	1.616
x1 = 1	1.7	1.685	1.68	1.675	1.664	1.662

[Cl][Nd]([Cl])[Cl] [neodymium(III) chloride]
Details	Normal melting temperature [°C]
[1]	760

[2]
Details	refractive index
1053 K	1.704
1073 K	1.701
1093 K	1.698
1113 K	1.695
1133 K	1.692
1153 K	1.689
1173 K	1.686
1193 K	1.683
1213 K	1.68

[Cl-].[K+] [potassium chloride]
[2]
Details	refractive index
1073 K	1.393
1093 K	1.39
1103 K	1.388
1113 K	1.386
1123 K	1.385
1133 K	1.383
1153 K	1.38
1173 K	1.377
1193 K	1.374

[Cl-].[K+] [potassium chloride] + [Cl-].[Cl-].[Cl-].[Gd+3]
[3], 100 kPa, Wavelength=632.8 nm, x2 = 0
Details	refractive index
1073 K	1.393
1093 K	1.39
1103 K	1.388
1113 K	1.386
1123 K	1.385
1133 K	1.383
1153 K	1.38
1173 K	1.377
1193 K	1.374

[Cl-].[K+] [potassium chloride] + [Cl-].[Na+]
[3], 101 kPa, Wavelength=632.8 nm, x2 = 0.5
Details	refractive index
953 K	1.42
973 K	1.417
993 K	1.414
1013 K	1.411
1033 K	1.408
1053 K	1.405
1073 K	1.402
1093 K	1.399
1103 K	1.397
1113 K	1.396
1123 K	1.394
1133 K	1.393
1153 K	1.39
1173 K	1.387

[Cl-].[K+] [potassium chloride] + [Cl][Ce]([Cl])[Cl]
[3], 100 kPa, Wavelength=632.8 nm, x2 = 0
Details	refractive index
1073 K	1.393
1093 K	1.39
1103 K	1.388
1113 K	1.386
1123 K	1.385
1133 K	1.383
1153 K	1.38
1173 K	1.377
1193 K	1.374

[Cl-].[K+] [potassium chloride] + [Cl][Sm]([Cl])[Cl]
[3], 100 kPa, Wavelength=632.8 nm, x2 = 0
Details	refractive index
1073 K	1.393
1093 K	1.39
1103 K	1.388
1113 K	1.386
1123 K	1.385
1133 K	1.383
1153 K	1.38
1173 K	1.377
1193 K	1.374

[Cl][Sm]([Cl])[Cl] [samarium chloride]
Details	Normal melting temperature [°C]
[1]	678

[2]
Details	refractive index
973 K	1.712
1003 K	1.705
1023 K	1.701
1073 K	1.691
1103 K	1.684
1123 K	1.68
1153 K	1.674
1173 K	1.672

[Cl][Sm]([Cl])[Cl] [samarium chloride] + [Cl-].[Cs+]
refractive index, [3], 100 kPa, Wavelength=6328 nm
Details	973 K	1003 K	1023 K	1073 K	1103 K	1123 K	1153 K	1173 K	1203 K
x1 = 0.15	–	–	1.468	1.464	1.458	1.448	–	1.44	–
x1 = 0.5	1.564	1.558	1.557	1.55	1.543	1.54	–	1.527	1.523
x1 = 0.75	1.675	1.668	1.662	1.654	1.651	1.642	–	1.64	1.635
x1 = 1	1.712	1.705	1.701	1.691	1.684	1.68	1.674	1.672	–

[Cl][Sm]([Cl])[Cl] [samarium chloride] + [Cl-].[K+]
refractive index, [3], 100 kPa, Wavelength=632.8 nm
Details	973 K	1003 K	1023 K	1073 K	1103 K	1123 K	1153 K	1173 K	1203 K
x1 = 0.25	–	–	–	1.478	1.47	1.466	–	1.458	1.45
x1 = 0.5	1.588	1.582	1.577	1.56	1.551	1.54	–	1.525	1.52
x1 = 0.75	1.66	1.652	1.651	1.63	1.623	1.618	–	1.605	1.601
x1 = 1	1.712	1.705	1.701	1.691	1.684	1.68	1.674	1.672	–

[Cl][Sm]([Cl])[Cl] [samarium chloride] + [Cl-].[Na+]
refractive index, [3], 100 kPa, Wavelength=632.8 nm
Details	973 K	1003 K	1023 K	1073 K	1103 K	1123 K	1153 K	1173 K	1193 K
x1 = 0.25	1.536	1.53	1.526	1.518	1.513	1.51	–	1.503	1.499
x1 = 0.5	1.613	1.609	1.602	1.583	1.582	1.58	–	1.569	–
x1 = 0.75	1.672	1.665	1.662	1.653	1.648	1.64	–	1.629	–
x1 = 1	1.712	1.705	1.701	1.691	1.684	1.68	1.674	1.672	–

[Cl-].[Na+] [sodium chloride]
[2]
Details	refractive index
1083 K	1.41
1093 K	1.408
1103 K	1.407
1113 K	1.406
1123 K	1.405
1133 K	1.404
1153 K	1.402
1173 K	1.399

[Cl-].[Na+] [sodium chloride] + [Cl-].[Cl-].[Cl-].[Gd+3]
[3], 100 kPa, Wavelength=632.8 nm, x2 = 0
Details	refractive index
1083 K	1.41
1093 K	1.408
1103 K	1.407
1113 K	1.406
1123 K	1.405
1133 K	1.404
1153 K	1.402
1173 K	1.399

[Cl-].[Na+] [sodium chloride] + [Cl][Ce]([Cl])[Cl]
[3], 101 kPa, Wavelength=632.8 nm, x2 = 0
Details	refractive index
1083 K	1.41
1093 K	1.408
1103 K	1.407
1113 K	1.406
1123 K	1.405
1133 K	1.404
1153 K	1.402
1173 K	1.399

[Cl-].[Na+] [sodium chloride] + [Cl][Sm]([Cl])[Cl]
[3], 100 kPa, Wavelength=632.8 nm, x2 = 0
Details	refractive index
1083 K	1.41
1093 K	1.408
1103 K	1.407
1113 K	1.406
1123 K	1.405
1133 K	1.404
1153 K	1.402
1173 K	1.399
